The results in this text go back to patent US20210177814A1, “USE OF GUANABENZ OR DERIVATES THEREOF FOR THE TREATMENT OF TYPE I IFN-DEPENDENT PATHOLOGIES” (INSERM (Institut National de la Santé et de la Recherche …, priority 2018, published 2021).

Structures are written as SMILES.

This experiment concerns the target T1, TLR9 (Homo sapiens, UniProt Q9NR96).
T1 sequence (Q9NR96 26-1032): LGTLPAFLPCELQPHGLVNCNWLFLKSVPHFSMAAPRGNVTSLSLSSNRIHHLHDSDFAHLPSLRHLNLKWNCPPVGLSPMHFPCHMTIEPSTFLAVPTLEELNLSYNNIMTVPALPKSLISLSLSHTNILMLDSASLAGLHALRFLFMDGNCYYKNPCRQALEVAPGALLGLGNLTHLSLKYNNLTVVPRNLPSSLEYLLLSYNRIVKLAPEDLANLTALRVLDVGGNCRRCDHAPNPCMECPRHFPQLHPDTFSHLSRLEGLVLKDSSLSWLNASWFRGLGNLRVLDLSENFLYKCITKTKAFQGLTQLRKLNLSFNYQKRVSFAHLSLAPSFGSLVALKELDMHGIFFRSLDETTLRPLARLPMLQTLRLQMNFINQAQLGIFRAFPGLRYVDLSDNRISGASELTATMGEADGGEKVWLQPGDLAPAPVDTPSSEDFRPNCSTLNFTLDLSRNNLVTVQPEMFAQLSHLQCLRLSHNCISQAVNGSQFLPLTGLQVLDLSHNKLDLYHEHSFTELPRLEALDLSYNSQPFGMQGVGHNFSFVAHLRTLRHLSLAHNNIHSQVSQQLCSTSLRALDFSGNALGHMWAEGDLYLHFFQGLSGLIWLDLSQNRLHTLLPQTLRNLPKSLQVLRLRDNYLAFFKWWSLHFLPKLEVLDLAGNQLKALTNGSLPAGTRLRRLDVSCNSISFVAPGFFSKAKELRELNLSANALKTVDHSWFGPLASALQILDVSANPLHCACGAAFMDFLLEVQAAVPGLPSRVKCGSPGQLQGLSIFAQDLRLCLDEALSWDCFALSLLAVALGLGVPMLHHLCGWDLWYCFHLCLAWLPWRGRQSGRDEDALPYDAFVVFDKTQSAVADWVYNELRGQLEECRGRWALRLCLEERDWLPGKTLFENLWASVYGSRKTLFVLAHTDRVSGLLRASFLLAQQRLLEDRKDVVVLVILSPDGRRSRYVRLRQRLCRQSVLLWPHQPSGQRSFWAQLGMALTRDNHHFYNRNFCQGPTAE
The experiment can be described thus: HEK-Blue hTLR9 SEAP reporter assay. The class given is cell-based. Also on record: expressed in transfected cells; host or cells: HEK-Blue (HEK 293) hTLR9 reporter cells. Conditions: 2.5 μM ODN 2006, GBZ 50 μM. The protocol: FIG. 1: Guanabenz inhibits TLR3 and TLR9 activation in mouse Flt3-L DCs and human blood pDCs. A) Sorted bone marrow derived Flt3L-DCs were activated for 6 h with 10 μg/mL poly I:C LMW (TLR3 in DC1) or 1 μM ODN 1585 (TLR9 in pDCs). GBZ was added at 50 μM and inhibited IFN-β and Interleukin-6 (IL-6) production in activated cells. B) hTLR4, hTLR3, hTLR9 and hTLR7 expressed in the reporter HEK-Blue™ cells are inhibited by GBZ. TLR-expressing HEK-Blue™ cells were respectively activated with 100 ng/mL LPS, 10 μg/mL poly I:C LMW, 2.5 μM ODN 2006 or 5 μg/mL imiquimod, respectively. GBZ was added at 50 μM. TLR activity was measured indirectly through SEAP activity as absorbance at 405 nm. […] Protein concentration of IFN-α and TNF-α secreted were measured at the indicated time points or at 16 h. […]
Given the efficiency of GBZ on mouse TLR3 and TLR9, we turned to human TLRs, in order to extend the relevance of our observations. GBZ-mediated inhibition was first evaluated on NF-kB signaling by monitoring secreted alkaline phosphatase (SEAP) reporter levels in HEK-293 cells expressing TLR3, TLR4, TLR7, TLR9 (FIG. 1B). […] The functionality of the TLR9 transduction pathway was next evaluated by using phospho-flow detection of 40S ribosomal protein S6 (rpS6) phosphorylation, a well characterized early signaling event down-stream of TLR activation by LPS or viruses.
For orientation: Reporter assays use an easily measured gene product as a stand-in for the process of interest.

Regarding `NC(N)=N/N=C/c1c(Cl)cccc1Cl` [GBZ, 2-(2,6-dichlorobenzylidene)-hydrazinecarboximidamide], the “TLR9-dependent activation of the SEAP reporter” value is reported as “inhibited”.
